Among the data in patent publication US20070244107A1, “Method of Treating Atherosclerosis, Dyslipidemias and Related Conditions” (priority 2004, published 2007) are flushing effect values, retold here.

The subject of the series is male C57B16 mice. Kind of series: Flushing via laser Doppler procedure in mice. The series is classed as in vivo. Conditions: relative to nicotinic acid; mouse model. As for the experimental part: To measure flushing, male C57B16 mice (approx. 25 g) are anesthetized using 10 mg/mkg Nembutal sodium. After ten minutes the animal is placed under the laser and the ear is folded back to expose the ventral side. The laser is positioned in the center of the ear and focused to an intensity of 8.4-9.0 V (which is generally approx. 4.5 cm above the ear). Data acquisition is initiated with a 15 by 15 image format, auto interval, 60 images and a 20 sec time delay with a medium resolution. Test compounds are administered following the 10th image via injection into the peritoneal space. Images 1-10 are considered the animal's baseline and data is normalized to an average of the baseline mean intensities.

“Also recorded” adds a separate entry of the source.

On to `C1Cc2[nH]nc(-c3nnn[nH]3)c2C1` [compound of formula I, 3-(2H-tetrazol-5-yl)-1,4,5,6-tetrahydrocyclopentapyrazole], for which the flushing effect result is “reduced flushing effect relative to nicotinic acid; also recorded: reduced flushing effect relative to nicotinic acid, but flushing is not completely eliminated”.
